From US9364492B2, “Method for glycosylation of flavonoid compounds” (SUNTORY HOLDINGS LIMITED, priority 2007, dated 2016)

What was measured:
TRa2 [1] = assay: Substrate specificity: glycosylation of acceptor compounds with dextrin by crude TRa2 enzyme solution, HPLC; type: biochemical, Trichoderma viride; details: 0.5 mM or 10 mM glycosyl acceptor compound, 10 mg dextrin, pH 5.2, 45° C., 24 hr
Description: The strain TRa2-1 was cultured overnight at 30° C. with shaking in 10 ml YPD medium. After reaching the resting phase, the culture solution was inoculated into the same medium (2% (v/v)) and cultured with shaking at 30° C. for 3 days. After culturing, the supernatant was collected by centrifugation and concentrated 5-fold to give a crude enzyme solution of TRa2. The reaction was performed at 45° C. for 24 hr in 100 μl enzyme reaction solution containing 0.5 mM or 10 mM glycosyl acceptor compound ((+)-catechin, (−)-epigallocatechin-3-O-gallate, esculetin, naringenin, quercetin, daidzein, genistein or kaempferol), 10 mg dextrin, 100 mM acetate buffer (pH 5.2) and the crude enzyme solution, followed by HPLC analysis.

[2] = Heat stability of glycoside; type: physicochemical; details: 100 μM in 10 mM potassium phosphate buffer pH 7.0, 4° C. to 100° C., 0 to 4 hours
Description: After 10 mM potassium phosphate buffer (pH 7.0, 30 μl) containing 100 μM (+)-catechin or 4′-O-α-D-glucopyranosyl-(+)—catechin obtained in Example 4 was treated at different temperatures ranging from 4° C. to 100° C. for 0 to 4 hours, each sample was transferred on ice and mixed with 0.1% TFA (60 μl), followed by HPLC analysis in the same manner as shown in Example 1.

Cellulase “Onozuka” RS [3] = assay: Glycosyl donor selectivity 2: (+)-catechin, Cellulase “Onozuka” RS and each glycosyl donor, HPLC; type: biochemical, Trichoderma viride; details: substance as glycosyl donor (10 mg); (+)-catechin 3 mg; 50° C., 1 day, pH 5
Description: (+)-Catechin (3 mg) was mixed with Cellulase “Onozuka” RS (10 mg), each glycosyl donor (10 mg) and 0.1 M acetate buffer (100 μl, pH 5), followed by stirring at 50° C. for 1 day. The glycosyl donors used were maltose, maltotriose, maltotetraose, maltopentaose, maltohexaose, maltoheptaose and dextrin (Nacalai Tesque, Inc., Japan), as well as γ-cyclodextrin (Wako Pure Chemical Industries, Ltd., Japan). After the reaction, the centrifuged supernatant was diluted 10-fold and analyzed by HPLC.

TRa2 [4] = assay: Glycosidase activity of TRa2 on sugars, TLC; type: biochemical, Trichoderma viride; details: 0.5% sugar, 20 mM acetate buffer pH 5.0, 50° C., 1 hour
Description: The culture supernatant (500 μl) was concentrated about 5-fold using Microcon YM-30 (Amicon). The above concentrate (10 μl) was added to 100 μl of 20 mM acetate buffer (pH 5.0) containing 0.5% maltose, maltotriose, maltotetraose, dextrin, α-cyclodextrin, β-cyclodextrin or γ-cyclodextrin, and reacted at 50° C. for 1 hour.
After completion of the reaction, each sample was analyzed by TLC as follows. The plate used was a silica gel G-60 plate (Merck & Co., Inc.), and the developing solution used was 2-propanol:acetone:0.5 M lactic acid=2:2:1. For detection, the plate was sprayed with sulfuric acid:ethanol=1:9, air-dried and then heated on a hot plate. As a result, none of the sugars was degraded in a culture solution of the control strain (strain C-1) transformed with vector pYE22m.

[5] = Solubility of glycoside in water; type: physicochemical
Description: (+)-Catechin or 5-O-α-D-glucopyranosyl-(+)-catechin obtained in Example 3 was added to water at different concentrations ranging from 10 to 450 mg/ml and dissolved by vigorous stirring, followed by centrifugation to remove precipitates. The supernatant was analyzed by HPLC to quantify the amounts of (+)-catechin and 5-O-α-D-glucopyranosyl-(+)-catechin. The same procedure was also repeated to study the solubility of (−)-epigallocatechin-3-β-gallate or 5-O-α-D-glucopyranosyl-(−)-epigallocatechin-3-O-gallate.

Cellulase “Onozuka” RS [6] = assay: Glycosyl donor selectivity 1: (+)-catechin, Cellulase “Onozuka” RS and each glycosyl donor, HPLC; type: biochemical, Trichoderma viride; details: substance as glycosyl donor (20 mg); (+)-catechin 6 mg; 50° C., 1 day, pH 5
Description: (+)-Catechin (6 mg) was mixed with Cellulase “Onozuka” RS (20 mg), each glycosyl donor (20 mg) and 0.1 M acetate buffer (200 μl, pH 5), followed by stirring at 50° C. for 1 day. After the reaction, the centrifuged supernatant was diluted 10-fold and analyzed by HPLC. The glycosyl donors used were cellobiose (Sigma), dextran (Sigma), maltose (Nacalai Tesque, Inc., Japan), carboxymethylcellulose sodium (Nacalai Tesque, Inc., Japan), soluble starch (Nacalai Tesque, Inc., Japan), dextrin (Nacalai Tesque, Inc., Japan), isomaltooligosaccharide (Wako Pure Chemical Industries, Ltd., Japan), α-cyclodextrin (Wako Pure Chemical Industries, Ltd., Japan), γ-cyclodextrin (Wako Pure Chemical Industries, Ltd., Japan) and trehalose dihydrate (Nacalai Tesque, Inc., Japan).

| Compound | area ratio (%) between acceptor compound and glycoside product (TRa2 [1]) [%] | Product (% area) 5-Glc (Cellulase “Onozuka” RS [3]) [% area] | Product (% area) 7-Glc (Cellulase “Onozuka” RS [3]) [% area] | degradation of sugar in culture solution of strain TRa2-1 (TRa2 [4]) | further results |
| --- | --- | --- | --- | --- | --- |
| O=c1ccc2cc(O)c(O)cc2o1 [esculetin] | 3.5 | – | – | – | – |
| O=c1c(O)c(-c2ccc(O)cc2)oc2cc(O)cc(O)c12 [kaempferol] | 3.1 | – | – | – | – |
| O=c1c(O)c(-c2ccc(O)c(O)c2)oc2cc(O)cc(O)c12 [quercetin] | 9.4 | – | – | – | – |
| OC[C@H]1O[C@H](Oc2ccc([C@H]3Oc4cc(O)cc(O)c4C[C@@H]3O)cc2O)[C@H](O)[C@@H](O)[C@@H]1O [4′-O-α-D-glucopyranosyl-(+)-catechin] | – | – | – | – | heat stability (% remaining) [2]: more stable against heat than catechin |
| maltohexaose | – | 7.89 | 2.06 | – | – |
| O=c1c(-c2ccc(O)cc2)coc2cc(O)cc(O)c12 [genistein] | 6.8 | – | – | – | – |
| OC[C@H]1O[C@H](O[C@H]2[C@H](O)[C@@H](O)C(O)O[C@@H]2CO)[C@H](O)[C@@H](O)[C@@H]1O (mixture of isomers) [Maltose, maltose] | – | – | – | no degradation | – |
| Oc1cc(O)c2c(c1)O[C@H](c1ccc(O)c(O)c1)[C@@H](O)C2 [(+)-catechin] | 10 | – | – | – | water solubility [5]: substantially insoluble in water |
| O=c1c(-c2ccc(O)cc2)coc2cc(O)ccc12 [daidzein] | 10.7 | – | – | – | – |
| maltopentaose | – | 7.87 | 1.98 | – | – |
| O=C(O[C@@H]1Cc2c(O[C@H]3O[C@H](CO)[C@@H](O)[C@H](O)[C@H]3O)cc(O)cc2O[C@@H]1c1cc(O)c(O)c(O)c1)c1cc(O)c(O)c(O)c1 [5-O-α-D-glucopyranosyl-(−)-epigallocatechin-3-O-gallate] | – | – | – | – | solubility compared to (−)-epigallocatechin-3-O-gallate ([5]; water): significantly increased solubility |
| maltotriose | – | 2.54 | 0.51 | degraded | – |
| OC[C@H]1O[C@@H]2O[C@H]3[C@H](O)[C@@H](O)[C@@H](O[C@H]4[C@H](O)[C@@H](O)[C@@H](O[C@H]5[C@H](O)[C@@H](O)[C@@H](O[C@H]6[C@H](O)[C@@H](O)[C@@H](O[C@H]7[C@H](O)[C@@H](O)[C@@H](O[C@H]1[C@H](O)[C@H]2O)O[C@@H]7CO)O[C@@H]6CO)O[C@@H]5CO)O[C@@H]4CO)O[C@@H]3CO [α-Cyclodextrin, α-cyclodextrin] | – | – | – | no degradation | – |
| OC[C@H]1O[C@@H]2O[C@H]3[C@H](O)[C@@H](O)[C@@H](O[C@H]4[C@H](O)[C@@H](O)[C@@H](O[C@H]5[C@H](O)[C@@H](O)[C@@H](O[C@H]6[C@H](O)[C@@H](O)[C@@H](O[C@H]7[C@H](O)[C@@H](O)[C@@H](O[C@H]8[C@H](O)[C@@H](O)[C@@H](O[C@H]9[C@H](O)[C@@H](O)[C@@H](O[C@H]1[C@H](O)[C@H]2O)O[C@@H]9CO)O[C@@H]8CO)O[C@@H]7CO)O[C@@H]6CO)O[C@@H]5CO)O[C@@H]4CO)O[C@@H]3CO [γ-Cyclodextrin, γ-cyclodextrin] | – | 14.53 | 4.73 | degraded | Product (% area) 5-Glc (Cellulase “Onozuka” RS [6]): 14.69 % area; Product (% area) 7-Glc (Cellulase “Onozuka” RS [6]): 5.91 % area |
| OC[C@H]1O[C@H](Oc2cc(O)cc3c2C[C@H](O)[C@@H](c2ccc(O)c(O)c2)O3)[C@H](O)[C@@H](O)[C@@H]1O [5-O-α-D-glucopyranosyl-(+)-catechin] | – | – | – | – | solubility relative to (+)-catechin [5]: at least 40 fold |
| maltoheptaose | – | 7.39 | 1.97 | – | – |
| OC[C@H]1O[C@H](O[C@H]2[C@H](O)[C@@H](O)[C@@H](O[C@H]3[C@H](O)[C@@H](O)[C@@H](O[C@H]4[C@H](O)[C@@H](O)C(O)O[C@@H]4CO)O[C@@H]3CO)O[C@@H]2CO)[C@H](O)[C@@H](O)[C@@H]1O (some centres unmarked) [Maltotetraose, maltotetraose] | – | 7.15 | 1.60 | degraded | – |
| O=C1C[C@@H](c2ccc(O)cc2)Oc2cc(O)cc(O)c21 [naringenin] | 4.4 | – | – | – | – |
| OC[C@H]1O[C@@H]2O[C@H]3[C@H](O)[C@@H](O)[C@@H](O[C@H]4[C@H](O)[C@@H](O)[C@@H](O[C@H]5[C@H](O)[C@@H](O)[C@@H](O[C@H]6[C@H](O)[C@@H](O)[C@@H](O[C@H]7[C@H](O)[C@@H](O)[C@@H](O[C@H]8[C@H](O)[C@@H](O)[C@@H](O[C@H]1[C@H](O)[C@H]2O)O[C@@H]8CO)O[C@@H]7CO)O[C@@H]6CO)O[C@@H]5CO)O[C@@H]4CO)O[C@@H]3CO [β-cyclodextrin] | – | – | – | no degradation | – |
| (−)-epigallocatechin-3-O-gallate | 17.7 | – | – | – | – |
